Data reported in patent US5912266A, “Beta2 integrin cell adhesion molecule inhibitors” (American Home Products Corporation, priority 1997, dated 1999).
“And” between values parts separate entries of the source, which are not always exact repeats. Equal values may be shown once.

Test system: β2 integrin
Assay: Adhesion of activated, β2 integrin-expressing HL60 cells to recombinant soluble ICAM-1
Assay type: cell-based, human
Conditions: for Percent Cells Bound: single well
Procedure: HL60 cells were provided by the American Type Culture Collection (ATCC No. CCL240) and were used between passages 20 to 30 as the control β2 integrin expressing cells, following stimulation for exactly four days in culture media containing dimethylsulfoxide (DMSO). Culture media was comprised of RPMI 1640 (Gibco No. 3201870AJ) supplemented with Penicillin (100 Units/ml)/Streptomycin Sulfate ([…]) (Gibco No. 600-5145AE), L-Glutamine (2 mM) (Gibco No. 320-5030PG), and 10% heat inactivated fetal bovine serum (FBS, Hyclone No. A-1111L). Fetal bovine serum was heat inactivated by incubating in a 56° C. water bath for 30 minutes. Stimulation of the expression of the β2 integrin on HL60 cells was achieved by growing the cells at a density of 2.5×10^5 cells per ml of culture media for four days in the presence of 1.25% DMSO. Following the removal of the DMSO containing media, the β2 integrin on these cells was activated to a high affinity ICAM-1 binding state by the addition of 0.1 nM of (PMA) and PMN Buffer. This buffer was comprised of Hank's balanced salt solution (HBSS) supplemented with 1.2 mM calcium chloride, 1 mM magnesium chloride, 2% glucose, […] HEPES buffer. The ICAM-1 used to measure the adhesion of β2 integrin-bearing cells was obtained from cloning and expression of recombinant, soluble, human ICAM-1 using a baculovirus expression system and standard molecular biology technology. Soluble ICAM-1 was cloned by cleaving ICAM-1 DNA, purchased from R & D Systems, with restriction enzymes to obtain DNA that codes for the soluble (non-membrane) form of the protein. […] The soluble ICAM-1 was purified by passing the media from the ICAM-1 expressing cells over an anti-ICAM-1 antibody-linked sepharose column prepared using a standard immunoaffinity chromatography kit obtained from Pierce Inc.
200 ng of purified, recombinant, soluble ICAM-1 contained in 100 μl of PBS was added to wells of a flat bottom, 96 well EIA/RIA plate (Corning No. 25801), covered with an adhesive backed plate sealer (Linbro No. 76-401-05) and incubated for at least 18 hours at 4° C. to allow ICAM-1 to bind to the assay wells, prior to the addition of the β2 integrin expressing HL60 cells.
HL60 cells were grown in 1.25% DMSO for 4 days and pelleted by centrifugation in a Sorvall RT6000 tabletop centrifuge for 5 minutes, 1000 rotations per minute (rpm), at room temperature. The resulting HL60 cell pellet was resuspended in 50 ml sterile Dulbecco's phosphate buffered saline (dPBS) (Gibco No. 310-4040AJ). The resulting cell pellet was resuspended in 50 ml dPBS and the cell concentration was determined using a hemacytometer. The cells were pelleted as described above and resuspended in PMN Buffer to 15 to 20×10^6 cells/ml. The resuspended HL60 cells were fluorescently labeled by mixing the cells with an equal volume of a 25 μM solution of Calcein AM (Molecular Probes No. C-1430) dye that had been dissolved in PMN Buffer. HL60 cells in the calcein AM solution was incubated in a 37° C. waterbath for 10 minutes with intermittent swirling of the reaction tube. The labeling reaction was stopped by the addition of 13 ml of ice-cold PMN Buffer and the cells were pelleted by centrifugation at 2000 rpm for 5 minutes at 4° C.
The labeled cell pellet was resuspended in 15 ml of ice-cold PMN Buffer and the cell density was determined using a hemacytometer. Cells were then pelleted by centrifugation at 2000 rpm for 5 minutes followed by resuspension in ice-cold PMN Buffer to 2×10^5 cells/40 μl. The labeled cell suspension was placed in the dark at room temperature while asperlin containing solutions were prepared.
Asperlin was solubilized in 100% DMSO at a concentration of 50 mg/ml. This stock was then diluted to 400 μg/ml with PMN Buffer and serial dilutions of the 400 μg/ml asperlin solution were prepared using PMN buffer containing 2% DMSO to obtain solutions ranging from 200 μg/ml to 1.56 μg/ml. […]

For `CC(=O)OC1C=CC(=O)OC1C1OC1C` [Asperlin, 6,7-Anhydro-2,3,8-trideoxy-D-galacto-oct-2-enoic acidδ-lactone 4-acetate], the “% Inhibition of Cell Adhesion” value (Asperlin 1.56 μg/ml) was -8%, the “Average Percent Cells Bound” value (Asperlin 1.56 μg/ml) was 26% and the “Bound Cell Fluorescence” value (Asperlin 1.56 μg/ml) was 1551 fluorescence units/well and 1755 fluorescence units/well. The “Percent Cells Bound” value (Asperlin 1.56 μg/ml) was 25% and 27%, the “% Inhibition of Cell Adhesion” value (Asperlin 3.125 μg/ml) was -36% and the “Average Percent Cells Bound” value (Asperlin 3.125 μg/ml) was 33%. The “Bound Cell Fluorescence” value (Asperlin 3.125 μg/ml) was 1862 fluorescence units/well and 2077 fluorescence units/well, the “Percent Cells Bound” value (Asperlin 3.125 μg/ml) was 32% and 34% and the “% Inhibition of Cell Adhesion” value (Asperlin 6.25 μg/ml) was 29%. For the same compound, the “Average Percent Cells Bound” value (Asperlin 6.25 μg/ml) was 17%, the “Bound Cell Fluorescence” value (Asperlin 6.25 μg/ml) was 1003 fluorescence units/well and 1161 fluorescence units/well and the “Percent Cells Bound” value (Asperlin 6.25 μg/ml) was 15% and 19%. For the same compound, the “% Inhibition of Cell Adhesion” value (Asperlin 12.5 μg/ml) was 50%, the “Average Percent Cells Bound” value (Asperlin 12.5 μg/ml) was 12% and the “Bound Cell Fluorescence” value (Asperlin 12.5 μg/ml) was 589 fluorescence units/well and 768 fluorescence units/well. For the same compound, the “Percent Cells Bound” value (Asperlin 12.5 μg/ml) was 10% and 13%, the “% Inhibition of Cell Adhesion” value (Asperlin 25 μg/ml) was 83% and the “Average Percent Cells Bound” value (Asperlin 25 μg/ml) was 4%. The “Bound Cell Fluorescence” value (Asperlin 25 μg/ml) was 171 fluorescence units/well and 320 fluorescence units/well, the “Percent Cells Bound” value (Asperlin 25 μg/ml) was 2.6% and 5.3% and the “% Inhibition of Cell Adhesion” value (Asperlin 50 μg/ml) was 94%. For the same compound, the “Average Percent Cells Bound” value (Asperlin 50 μg/ml) was 1.4%, the “Bound Cell Fluorescence” value (Asperlin 50 μg/ml) was 82 fluorescence units/well and 77 fluorescence units/well and the “Percent Cells Bound” value (Asperlin 50 μg/ml) was 1.4% and 1.3%. The “% Inhibition of Cell Adhesion” value (Asperlin 100 μg/ml) was 97.5%, the “Average Percent Cells Bound” value (Asperlin 100 μg/ml) was 0.6% and the “Bound Cell Fluorescence” value (Asperlin 100 μg/ml) was 45 fluorescence units/well and 31 fluorescence units/well. For the same compound, the “Percent Cells Bound” value (Asperlin 100 μg/ml) was 0.7% and 0.5%, the “% Inhibition of Cell Adhesion” value (Asperlin 200 μg/ml) was 98% and the “Average Percent Cells Bound” value (Asperlin 200 μg/ml) was 0.5%. For the same compound, the “Bound Cell Fluorescence” value (Asperlin 200 μg/ml) was 29 fluorescence units/well and 28 fluorescence units/well, the “Percent Cells Bound” value (Asperlin 200 μg/ml) was 0.5% and the “Effect on adhesion of activated β2 integrin expressing cells to ICAM-1 (in words)” value (summary of Table I) was “blocks the adhesion of activated β2 integrin expressing cells to ICAM-1”.
